In the NIST ThermoML archive (doi:10.1016/j.jct.2016.10.024):

Assay: mn = molality of the nth substance listed, in mol/kg
Conditions: 75 kPa, Liquid, Buoyancy - hydrostatic balance with magnetic suspension - one sinker

CC(N)=O [ethanamide] + O
Conditions	mass density [kg/m3]
275.66 K, m1 = 0.102	1000.47
275.66 K, m1 = 0.2015	1000.96
275.66 K, m1 = 0.2995	1001.42
275.66 K, m1 = 0.4032	1001.9
275.66 K, m1 = 0.4848	1002.29
275.66 K, m1 = 0.5945	1002.81
275.66 K, m1 = 0.6875	1003.24
275.66 K, m1 = 0.7747	1003.64
276.14 K, m1 = 0.09682	1000.43
276.14 K, m1 = 0.2023	1000.93
276.14 K, m1 = 0.3049	1001.42
276.14 K, m1 = 0.4077	1001.91
276.14 K, m1 = 0.5003	1002.35
276.14 K, m1 = 0.6016	1002.82
276.14 K, m1 = 0.7037	1003.3
276.14 K, m1 = 0.8092	1003.79
276.61 K, m1 = 0.1016	1000.37
276.61 K, m1 = 0.1972	1000.9
276.61 K, m1 = 0.299	1001.39
276.61 K, m1 = 0.4078	1001.9
276.61 K, m1 = 0.4957	1002.32
276.61 K, m1 = 0.6048	1002.83
276.61 K, m1 = 0.6858	1003.21
276.61 K, m1 = 0.8092	1003.78
277.15 K, m1 = 0.09682	1000.43
277.15 K, m1 = 0.2023	1000.93
277.15 K, m1 = 0.3049	1001.41
277.15 K, m1 = 0.4077	1001.88
277.15 K, m1 = 0.5003	1002.32
277.15 K, m1 = 0.6016	1002.8
277.15 K, m1 = 0.7037	1003.28
277.15 K, m1 = 0.8092	1003.77
277.61 K, m1 = 0.1016	1000.45
277.61 K, m1 = 0.1972	1000.91
277.61 K, m1 = 0.299	1001.38
277.61 K, m1 = 0.4078	1001.89
277.61 K, m1 = 0.4957	1002.29
277.61 K, m1 = 0.6048	1002.79
277.61 K, m1 = 0.6858	1003.16
277.61 K, m1 = 0.8092	1003.73
278.12 K, m1 = 0.1016	1000.43
278.12 K, m1 = 0.1972	1000.88
278.12 K, m1 = 0.299	1001.35
278.12 K, m1 = 0.4078	1001.85
278.12 K, m1 = 0.4957	1002.27
278.12 K, m1 = 0.6048	1002.77
278.12 K, m1 = 0.6858	1003.15
278.12 K, m1 = 0.8092	1003.73
278.68 K, m1 = 0.102	1000.43
278.68 K, m1 = 0.2015	1000.9
278.68 K, m1 = 0.2995	1001.36
278.68 K, m1 = 0.4032	1001.83
278.68 K, m1 = 0.4848	1002.21
278.68 K, m1 = 0.5945	1002.7
278.68 K, m1 = 0.6875	1003.12
278.68 K, m1 = 0.7747	1003.51

CCC(N)=O [propanamide] + O
Conditions	mass density [kg/m3]
275.66 K, m1 = 0.09705	1000.26
275.66 K, m1 = 0.18	1000.53
275.66 K, m1 = 0.2822	1000.89
275.66 K, m1 = 0.3869	1001.24
275.66 K, m1 = 0.4939	1001.62
275.66 K, m1 = 0.5946	1002
275.66 K, m1 = 0.702	1002.4
275.66 K, m1 = 0.8002	1002.77
276.14 K, m1 = 0.1006	1000.29
276.14 K, m1 = 0.1957	1000.6
276.14 K, m1 = 0.2937	1000.93
276.14 K, m1 = 0.3933	1001.26
276.14 K, m1 = 0.4953	1001.62
276.14 K, m1 = 0.59	1001.96
276.14 K, m1 = 0.7073	1002.39
276.14 K, m1 = 0.799	1002.72
276.61 K, m1 = 0.09735	1000.27
276.61 K, m1 = 0.2018	1000.61
276.61 K, m1 = 0.3001	1000.94
276.61 K, m1 = 0.3875	1001.23
276.61 K, m1 = 0.4999	1001.62
276.61 K, m1 = 0.5929	1001.94
276.61 K, m1 = 0.702	1002.32
276.61 K, m1 = 0.7924	1002.63
277.15 K, m1 = 0.1006	1000.29
277.15 K, m1 = 0.1957	1000.61
277.15 K, m1 = 0.2937	1000.93
277.15 K, m1 = 0.3933	1001.27
277.15 K, m1 = 0.4953	1001.61
277.15 K, m1 = 0.59	1001.93
277.15 K, m1 = 0.7073	1002.35
277.15 K, m1 = 0.799	1002.67
277.61 K, m1 = 0.09735	1000.28
277.61 K, m1 = 0.2018	1000.61
277.61 K, m1 = 0.3001	1000.92
277.61 K, m1 = 0.3875	1001.21
277.61 K, m1 = 0.4999	1001.59
277.61 K, m1 = 0.5929	1001.9
277.61 K, m1 = 0.694	1002.23
277.61 K, m1 = 0.8027	1002.59
278.12 K, m1 = 0.09735	1000.28
278.12 K, m1 = 0.2018	1000.62
278.12 K, m1 = 0.297	1000.92
278.12 K, m1 = 0.4495	1001.43
278.12 K, m1 = 0.4911	1001.58
278.12 K, m1 = 0.5697	1001.85
278.12 K, m1 = 0.7087	1002.34
278.12 K, m1 = 0.8713	1002.91
278.68 K, m1 = 0.09705	1000.26
278.68 K, m1 = 0.18	1000.51
278.68 K, m1 = 0.2822	1000.84
278.68 K, m1 = 0.3869	1001.18
278.68 K, m1 = 0.4939	1001.53
278.68 K, m1 = 0.5946	1001.87
278.68 K, m1 = 0.702	1002.24
278.68 K, m1 = 0.8002	1002.58
